Experimental data published in article PMC3003306 (Structure (London, England : 1993), 2010).

Molecular target: T1, IGPS (HisF-HisH heterodimer), glutaminase site in HisH (Thermotoga maritima, UniProt Q9X0C8)
T1 sequence (Q9X0C8 1-201): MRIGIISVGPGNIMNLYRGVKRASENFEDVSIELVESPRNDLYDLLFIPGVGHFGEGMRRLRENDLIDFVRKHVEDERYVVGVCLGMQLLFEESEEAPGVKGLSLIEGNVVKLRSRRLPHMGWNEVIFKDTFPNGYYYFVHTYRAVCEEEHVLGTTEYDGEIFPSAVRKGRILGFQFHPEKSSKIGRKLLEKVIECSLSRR
T1 sequence (Q9X0C6 1-253 partner): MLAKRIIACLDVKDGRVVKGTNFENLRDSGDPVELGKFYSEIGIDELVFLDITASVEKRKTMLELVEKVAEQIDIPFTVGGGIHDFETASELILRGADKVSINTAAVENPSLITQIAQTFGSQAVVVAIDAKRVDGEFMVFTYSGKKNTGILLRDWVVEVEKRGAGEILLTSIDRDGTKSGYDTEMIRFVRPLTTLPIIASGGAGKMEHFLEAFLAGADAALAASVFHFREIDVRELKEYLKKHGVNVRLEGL
Test: covalent modification of HisH C84 followed by DTNB analysis
Format: binding
Conditions: 1.5 molar equivalents acivicin, room temperature, HisH active site nucleophile C84

`N[C@H](C(=O)O)[C@@H]1CC(Cl)=NO1` [acivicin] was tested. Which “covalent modification of HisH C84 followed by DTNB analysis; NMR” value did it give?
Its value is “IGPS (HisH-C84) was covalently modified with acivicin”.
